Non-standard residues stand in square brackets, D forms with d. Residues, ends and D or L forms follow the SMILES beside them.
Target: T1, Galanin receptor type 2 (Rattus norvegicus, UniProt O08726)
T1 sequence (O08726 whole entry): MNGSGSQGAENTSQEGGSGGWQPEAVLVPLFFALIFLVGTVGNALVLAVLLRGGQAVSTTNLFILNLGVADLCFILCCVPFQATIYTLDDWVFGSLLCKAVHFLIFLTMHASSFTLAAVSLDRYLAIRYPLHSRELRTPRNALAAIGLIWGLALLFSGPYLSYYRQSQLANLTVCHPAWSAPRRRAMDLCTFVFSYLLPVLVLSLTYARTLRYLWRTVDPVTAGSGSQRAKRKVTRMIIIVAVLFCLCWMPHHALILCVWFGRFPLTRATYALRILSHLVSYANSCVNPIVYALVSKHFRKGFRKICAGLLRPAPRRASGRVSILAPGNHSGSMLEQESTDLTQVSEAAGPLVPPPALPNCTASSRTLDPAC

H-GWTLNSAGYLLGPPPALALA-NH2 [M40]
Ki: 1.9 nM

CC[C@H](C)[C@H](NC(=O)[C@H](C)NC(=O)[C@H](Cc1c[nH]cn1)NC(=O)[C@@H]1CCCN1C(=O)CNC(=O)[C@H](CC(C)C)NC(=O)[C@H](CC(C)C)NC(=O)[C@H](Cc1ccc(O)cc1)NC(=O)CNC(=O)[C@H](C)NC(=O)[C@H](CO)NC(=O)[C@H](CC(N)=O)NC(=O)[C@H](CC(C)C)NC(=O)[C@@H](N)[C@@H](C)O)C(=O)N[C@@H](CC(=O)O)C(=O)N[C@@H](CC(N)=O)C(=O)N[C@@H](Cc1c[nH]cn1)C(=O)N[C@@H](CCCNC(=N)N)C(=O)N[C@@H](CO)C(=O)N[C@@H](Cc1ccccc1)C(=O)N[C@@H](CO)C(=O)N[C@@H](CC(=O)O)C(=O)N[C@@H](CCCCN)C(=O)N[C@@H](Cc1c[nH]cn1)C(=O)NCC(=O)N[C@@H](CC(C)C)C(=O)N[C@H](C(N)=O)[C@@H](C)O [Galanin (3-29), rat]
Ki: 1000 nM

CC[C@H](C)[C@H](NC(=O)[C@H](C)NC(=O)[C@H](Cc1c[nH]cn1)NC(=O)[C@@H]1CCCN1C(=O)CNC(=O)[C@H](CC(C)C)NC(=O)[C@H](CC(C)C)NC(=O)[C@H](Cc1ccc(O)cc1)NC(=O)CNC(=O)[C@H](C)NC(=O)[C@H](CO)NC(=O)[C@H](CC(N)=O)NC(=O)[C@H](CC(C)C)NC(=O)[C@@H](NC(=O)[C@@H](N)Cc1c[nH]c2ccccc12)[C@@H](C)O)C(=O)N[C@@H](CC(=O)O)C(=O)N[C@@H](CC(N)=O)C(=O)N[C@@H](Cc1c[nH]cn1)C(=O)N[C@@H](CCCNC(=N)N)C(=O)N[C@@H](CO)C(=O)N[C@@H](Cc1ccccc1)C(=O)N[C@@H](CO)C(=O)N[C@@H](CC(=O)O)C(=O)N[C@@H](CCCCN)C(=O)N[C@@H](Cc1c[nH]cn1)C(=O)NCC(=O)N[C@@H](CC(C)C)C(=O)N[C@H](C(N)=O)[C@@H](C)O [Galanin Porcine 2-29]
Ki: 2.9 nM

CC(C)C[C@H](NC(=O)[C@H](CC(C)C)NC(=O)[C@@H](Cc1c[nH]c2ccccc12)NC(=O)[C@H](Cc1ccccc1)NC(=O)[C@@H](Cc1c[nH]c2ccccc12)NC(=O)[C@H](CCC(N)=O)NC(=O)[C@H](CCC(N)=O)NC(=O)[C@@H]1CCCN1C(=O)[C@H](CCCCN)NC(=O)[C@@H]1CCCN1C(=O)[C@@H](CCCNC(=N)N)NC(=O)[C@@H]1CCCN1C(=O)CNC(=O)[C@H](CC(C)C)NC(=O)[C@H](CC(C)C)NC(=O)[C@H](Cc1ccc(O)cc1)NC(=O)CNC(=O)[C@H](C)NC(=O)[C@H](CO)NC(=O)[C@H](CC(N)=O)NC(=O)[C@H](CC(C)C)NC(=O)[C@@H](NC(=O)[C@H](Cc1c[nH]c2ccccc12)NC(=O)CN)[C@@H](C)O)C(N)=O [Gal(1-13)-Std I] (H-GWTLNSAGYLLGP[dR]PKPQQ[dW]F[dW]LL-NH2)
Ki: 23 nM
